According to patent US20250230193A1, “CYCLIC COMPOUND HAVING SELECTIVE KRAS INHIBITORY EFFECT ON HRAS AND NRAS” (CHUGAI SEIYAKU KABUSHIKI KAISHA, priority 2022, published 2025):
Where a SMILES comes first, the peptide text is derived from it. Bridges are numbered along the chain shown (N, C = ends). [ ]: non-standard residue; d: D form. The star is where a group is joined. hPhe(3-Cl-4-CF3) = N[C@@H](CCc1ccc(C(F)(F)F)c(Cl)c1)C(=O)O; NPrPhe(4-CF3) = CCCN[C@@H](Cc1ccc(C(F)(F)F)cc1)C(=O)O; Morpholine(3S-CO) = O=C(O)[C@@H]1COCCN1; NMeGly(cPent) = CN[C@H](C(=O)O)C1CCCC1; Hyp = O=C(O)[C@@H]1C[C@@H](O)CN1; NMeD = CN[C@@H](CC(=O)O)C(=O)O; NMeL = CN[C@@H](CC(C)C)C(=O)O; Morpholide = C1CN(*)CCO1; NMeA = CN[C@@H](C)C(=O)O; Ac5c = NC1(C(=O)O)CCCC1; Aze = O=C(O)[C@@H]1CCN1; Ac4c = NC1(C(=O)O)CCC1; Sar = CNCC(=O)O

Assays:
[1] = biological target: GDP-bound NRAS wild-type protein (Homo sapiens, UniProt P01111); assay: Binding to NRAS by surface plasmon resonance (SPR), Single Cycle Kinetics
[2] = biological target: GDP-bound HRAS wild-type protein (Homo sapiens, UniProt P01112); assay: Binding to HRAS by surface plasmon resonance (SPR), Single Cycle Kinetics
Sequence of GDP-bound HRAS wild-type protein (P01112 whole entry): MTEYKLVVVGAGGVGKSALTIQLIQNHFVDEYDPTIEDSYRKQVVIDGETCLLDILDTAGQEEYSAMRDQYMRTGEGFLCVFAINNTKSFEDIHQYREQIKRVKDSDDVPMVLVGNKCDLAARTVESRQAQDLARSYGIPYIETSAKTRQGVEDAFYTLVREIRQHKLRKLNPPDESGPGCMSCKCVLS

Sequence of GDP-bound NRAS wild-type protein (P01111 whole entry): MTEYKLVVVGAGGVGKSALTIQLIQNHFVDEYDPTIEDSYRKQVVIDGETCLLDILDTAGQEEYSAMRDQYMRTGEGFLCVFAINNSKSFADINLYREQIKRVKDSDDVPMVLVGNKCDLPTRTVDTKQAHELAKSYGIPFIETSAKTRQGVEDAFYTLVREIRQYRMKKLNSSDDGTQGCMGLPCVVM

## CCCN1C(=O)CN(C)C(=O)[C@@H]2CCN2C(=O)[C@H]([C@@H](C)CC)NC(=O)[C@H](CC(C)C)N(C)C(=O)C[C@@H](C(=O)N2CCOCC2)N(C)C(=O)[C@H](C2CCCC2)N(C)C(=O)C2(CCCC2)NC(=O)[C@@H]2COCCN2C(=O)[C@H](CCc2ccc(C(F)(F)F)c(Cl)c2)NC(=O)CN(C)C(=O)[C@@H]1Cc1ccc(C(F)(F)F)cc1 [PP0313] ([NMeL]I[Aze][Sar][NPrPhe(4-CF3)][Sar][hPhe(3-Cl-4-CF3)][Morpholine(3S-CO)][Ac5c][NMeGly(cPent)][NMeD]-Morpholide; lactam N-11)
[1]; SPR
  NRAS/KRAS (ratio of KD for GDP-bound NRAS wild-type to KD for KRAS): B (a compound having 3 or more and less than 10 is denoted as B)
[2]; SPR
  HRAS/KRAS (ratio of KD for GDP-bound HRAS wild-type to KD for KRAS): C (A compound having a KD ratio of 0.1 or more and less than 3 is denoted as C)

## CCCN1C(=O)[C@@H]2CCN2C(=O)CN(C)C(=O)[C@H]([C@@H](C)CC)NC(=O)[C@H](CC(C)C)N(C)C(=O)C[C@@H](C(=O)N2CCOCC2)N(C)C(=O)[C@H](C2CCCC2)N(C)C(=O)C2(CCC2)NC(=O)[C@@H]2CCCN2C(=O)[C@H](CCc2ccc(C(F)(F)F)c(Cl)c2)NC(=O)CN(C)C(=O)[C@@H]1Cc1ccc(C(F)(F)F)cc1 [PP0407] ([NMeL]I[Sar][Aze][NPrPhe(4-CF3)][Sar][hPhe(3-Cl-4-CF3)]P[Ac4c][NMeGly(cPent)][NMeD]-Morpholide; lactam N-11)
[1]; SPR
  NRAS/KRAS (ratio of KD for GDP-bound NRAS wild-type to KD for KRAS): C (A compound having a KD ratio of 0.1 or more and less than 3 is denoted as C)
[2]; SPR
  HRAS/KRAS (ratio of KD for GDP-bound HRAS wild-type to KD for KRAS): B (a compound having 3 or more and less than 10 is denoted as B)

## CCCN1C(=O)[C@@H]2CCN2C(=O)[C@H](C)N(C)C(=O)[C@H]([C@@H](C)CC)NC(=O)[C@H](CC(C)C)N(C)C(=O)C[C@@H](C(=O)N(C)C)NC(=O)[C@H](C2CCCC2)N(C)C(=O)C2(CCC2)NC(=O)[C@@H]2CCCN2C(=O)[C@H](CCc2ccc(C(F)(F)F)c(Cl)c2)NC(=O)CN(C)C(=O)[C@@H]1Cc1ccc(C(F)(F)F)cc1 [PP0380] ([NMeL]I[NMeA][Aze][NPrPhe(4-CF3)][Sar][hPhe(3-Cl-4-CF3)]P[Ac4c][NMeGly(cPent)]D-NMe2; lactam N-11)
[1]; SPR
  NRAS/KRAS (ratio of KD for GDP-bound NRAS wild-type to KD for KRAS): C (A compound having a KD ratio of 0.1 or more and less than 3 is denoted as C)
[2]; SPR
  HRAS/KRAS (ratio of KD for GDP-bound HRAS wild-type to KD for KRAS): B (a compound having 3 or more and less than 10 is denoted as B)

## CCCN1C(=O)CN(C)C(=O)CN(C)C(=O)[C@H]([C@@H](C)CC)NC(=O)[C@H](CC(C)C)N(C)C(=O)C[C@@H](C(=O)N(C)C)N(C)C(=O)[C@H](C2CCCC2)N(C)C(=O)C2(CCC2)NC(=O)[C@@H]2C[C@@H](OCC)CN2C(=O)[C@H](CCc2ccc(C(F)(F)F)c(Cl)c2)NC(=O)CN(C)C(=O)[C@@H]1Cc1ccc(C(F)(F)F)cc1 [PP0416] ([NMeL]I[Sar][Sar][NPrPhe(4-CF3)][Sar][hPhe(3-Cl-4-CF3)][Hyp](Et)[Ac4c][NMeGly(cPent)][NMeD]-NMe2; lactam N-11)
[1]; SPR
  NRAS/KRAS (ratio of KD value with respect to GDP-bound NRAS wild-type protein to KD value with respect to KRAS): B (a compound having 3 or more and less than 10 is denoted as B)
[2]; SPR
  HRAS/KRAS (ratio of KD value with respect to GDP-bound HRAS wild-type protein to KD value with respect to KRAS): C (A compound having a KD ratio of 0.1 or more and less than 3 is denoted as C)

## CCO[C@@H]1C[C@H]2C(=O)NC3(CCC3)C(=O)N(C)[C@@H](C(CC)CC)C(=O)N(C)[C@H](C(=O)N3CCCC3)CC(=O)N(C)[C@H]3CCC/C=C/c4ccc(cc4)C[C@@H](C(=O)N(C)CC(=O)N[C@@H](CCc4cc(F)c(C(F)(F)F)c(F)c4)C(=O)N2C1)N1CC/C=C\C[C@@H](C1=O)N(C)C(=O)CN(C1CC1)C(=O)[C@H]([C@@H](C)CC)NC3=O [PP2957]
[1]; class symbols
  NRAS/KRAS (ratio of KD value with respect to GDP-bound NRAS wild-type protein to KD value with respect to KRAS): AA (a compound having 20 or more is denoted as AA)
[2]; class symbols
  HRAS/KRAS (ratio of KD value with respect to GDP-bound HRAS wild-type protein to KD value with respect to KRAS): A (a compound having 10 or more and less than 20 is denoted as A)

## CCO[C@@H]1C[C@H]2C(=O)NC3(CCC3)C(=O)N(C)[C@@H](C3CCCC3)C(=O)N(C)[C@H](C(=O)N(C)C)CC(=O)N(C)[C@@H](CC)C(=O)N[C@@H]([C@@H](C)CC)C(=O)N(C)CC(=O)N(C)[C@H]3CCCCCN(C3=O)[C@@H](Cc3ccc(F)cc3Cl)C(=O)N(C)CC(=O)N[C@@H](CCc3cc(F)c(C(F)(F)F)c(F)c3)C(=O)N2C1 [PP0908]
[1]; KD ratio, GDP-bound NRAS wild-type vs GDP-bound KRAS wild-type, SPR
  NRAS/KRAS (ratio of KD value with respect to NRAS to KD value with respect to KRAS): B (a compound having 3 or more and less than 10 is denoted as B)
[2]; KD ratio, GDP-bound HRAS wild-type vs GDP-bound KRAS wild-type, SPR
  HRAS/KRAS (ratio of KD value with respect to HRAS to KD value with respect to KRAS): B (a compound having 3 or more and less than 10 is denoted as B)

## CCO[C@@H]1C[C@H]2C(=O)NC3(CCC3)C(=O)N(C)[C@@H](C3CCCC3)C(=O)N(C)[C@H](C(=O)N(C)CCOC)CC(=O)N(C)[C@@H](CC3CC3)C(=O)N[C@@H]([C@@H](C)CC)C(=O)N(C)CC(=O)N(C)[C@H]3C/C=C\CCN(C3=O)[C@@H](Cc3ccc(C(F)(F)F)cc3)C(=O)N(C)CC(=O)N[C@@H](CCc3ccc(C(F)(F)F)c(OC)c3)C(=O)N2C1 [PP1327]
[1]; SPR, KD ratio class
  NRAS/KRAS (ratio of KD value for GDP-bound NRAS wild-type protein to KD value for KRAS): A (a compound having 10 or more and less than 20 is denoted as A)
[2]; SPR, KD ratio class
  HRAS/KRAS (ratio of KD value for GDP-bound HRAS wild-type protein to KD value for KRAS): A (a compound having 10 or more and less than 20 is denoted as A)
